One block for each molecule: values may come before it.
Experiments:
[1] = tested on: CHO cells transfected with ABA-inducible luciferase constructs; assay: ABA-inducible luciferase assay; format: cell-based; settings: 10 μM (mixture 10 μM each), 24 hours
[2] = Chemical stability of ABA-Fe molecules (HPLC); format: physicochemical; settings: 100 μM, 50% HEPES/DMSO pH 7.4, 37° C., one hour
Experimental: Chemical stability of ABA-Fe molecules: 100 μM ABA-Fe (in 50% HEPES/DMSO buffer, pH=7.4) was incubated at 37° C. for one hour before HPLC detection. The percentages for molecule cleavage were quantified by the peak area of ABA out of the total peak area.
(§1) HPLC chromatograms were acquired using an ULTIMATE 3000 LC System (Thermo Fisher Scientific, Waltham, Mass.) with ACCLAIM 120 Å, C18, 3 μm analytical (4.6×100 mm) column (Thermo Fisher Scientific, Waltham, Mass.). Chromatographic conditions: eluent A: 0.1% v/v TFA in water; eluent B: 0.1% v/v TFA in acetonitrile. ABA in ethanol or ABA-HP in DMSO was eluted at a flow rate of 0.750 ml/min monitored at a wavelength of 260 nm. 0-12 min (linear): 95% A, 5% B to 5% A, 95% B; 12-15 min: 5% A, 95% B; 15-17 min (linear): 5% A, 95% B to 95% A, 5% B. Generation of ABA was quantified by the peak area of ABA out of the total peak area.

[3] = ABA-Fe reactivity and selectivity towards Fe^2+ (HPLC); format: physicochemical; settings: 37° C., one hour
Experimental: ABA-Fe reactivity and selectivity towards Fe^2+: 100 μM ABA-Fe with 1 mM Fe^2+ (in 50% HEPES/DMSO buffer, pH=7.4), and 100 μM ABA-Fe with 1 mM Fe^3+ (in 50% HEPES/DMSO buffer, pH=7.4) were incubated at 37° C. for one hour before HPLC detection. The percentages for molecule cleavage were quantified by the peak area of ABA out of the total peak area.
as §1

[4] = tested on: HEK 293 EGFP reporter cells; assay: Cell stability of ABA-Fe molecules; format: cell-based
Experimental: Mammalian Cell Culture: HEK 293 EGFP reporter cells were cultured in Dulbecco's modified Eagle's medium (DMEM, GIBCO, Life Technologies, Carlsbad, Calif.) with 10% Fetal Bovine Serum (FBS, GIBCO, Life Technologies, Carlsbad, Calif.), 1× […] (100× from GIBCO, Life Technologies, Carlsbad, Calif.), and 1× Penicillin/Streptomycin (Pen/Strep, 100× from GIBCO, Life Technologies, Carlsbad, Calif.). Cells were plated with the starting concentration of 200,000 cells per well in a 24-well plate (Greiner Bio-One GmbH; Frickenhausen, Germany) for a day, and then were treated with either 10 μM of ABA-Fe and 20 μM of DFO, 10 μM of ABA-Fe only, or 10 μM of ABA-Fe and 100 μM of Fe^2+ aqueous solution.
Imagines for green fluorescence were taken for living cells every two hours after adding in those molecules by microscopy illumination system (Axio Observer; Carl Zeiss AG, Oberkochen, Germany). Each type of the experiment was carried out as duplex.

Source text for transfected cells: A concern of using UV-triggered reactions in cells is phototoxicity.

Molecule: CC1=CC(=O)CC(C)(C)C1(O)/C=C/C(C)=C/C(=O)O (single isomer, unassigned) [2-trans isomer]
induced luciferase expression (activity of ABA isomers) [1]: reduced activity

chemical stability [2]: chemically stable | selectivity towards Fe^2+ vs Fe^3+ ([3]; 100 μM with 1 mM Fe^2+ or Fe^3+): exhibits selectivity | reactivity (cleavage) towards Fe^2+ ([3]; 100 μM with 1 mM Fe^2+): exhibits Fe^2+ reactivity | stability in cells [4]: stable in cells
Molecule: CC1=CC(=O)CC(C)(C)[C@@]1(O)/C=C/C(C)=C\C(=O)ONC(C)c1ccccc1 (stereo partly drawn) [Compound 8]

Molecule: dimethoxynitrosobenzaldehyde [DMNB-derived photoproduct]
toxicity (transfected cells): does not cause observable toxicity

Reference: US10907219B2, “Compositions and methods for controlling cellular function” (STC.UNM, priority 2014, dated 2021)
